This is an account of results in BindingDB's records for patent WO2023019327 (Mindset Pharma, 2023).

Each structure is given as a SMILES string.

Chain of 5-hydroxytryptamine receptor 2A (P28223 whole entry): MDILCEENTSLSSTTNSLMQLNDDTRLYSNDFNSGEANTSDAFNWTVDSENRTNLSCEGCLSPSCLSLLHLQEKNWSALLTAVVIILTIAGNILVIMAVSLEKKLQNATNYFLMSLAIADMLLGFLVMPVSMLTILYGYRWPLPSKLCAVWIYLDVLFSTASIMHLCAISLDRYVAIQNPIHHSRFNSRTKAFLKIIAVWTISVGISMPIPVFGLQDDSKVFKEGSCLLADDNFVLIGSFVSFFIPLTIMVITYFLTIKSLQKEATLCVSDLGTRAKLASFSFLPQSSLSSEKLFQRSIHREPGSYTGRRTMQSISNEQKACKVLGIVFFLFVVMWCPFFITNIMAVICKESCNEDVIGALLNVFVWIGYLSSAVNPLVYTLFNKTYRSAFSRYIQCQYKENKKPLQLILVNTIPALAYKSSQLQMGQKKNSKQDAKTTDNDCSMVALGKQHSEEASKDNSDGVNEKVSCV

The assay deals with 5-hydroxytryptamine receptor 2A (Homo sapiens, UniProt P28223). Kind of assay: FLIPR Calcium 6 Assay. Here is the method:
The dye is diluted with assay buffer (20mM HEPES in 1x HBSS, PH7.4); Probenecid was added to the final concentration of 5 mM; […]. Vortexed vigorously for 1-2 minutes. Medium is removed from cell plate by flicking the cell plate on towel papers. […] The cell plate is placed on plate shaker, the plate was agitated at 600rpm for 2 minutes. The plate is incubated at 37°C for 2 hours followed by additional 15-minute incubation at 25°C. 3*compound in assay buffer is prepared: a. Reference compounds are diluted to required concentration with DMSO. The compounds were added to a 384-well compound plate; b. Serial dilutions are performed; c. […] Add […] assay buffer to the compound plate; f.
With `CN(C)CCc1c[nH]c2ccccc12` [2-(1H-indol-3-yl)-N,N-dimethylethanamine], the EC50 was less than 10 µM.

With `CCCCC/C=C\C/C=C\CCCCCCCC(=O)N(C)CCc1c[nH]c2ccccc12` [WO2023019367, Compound I-1], the EC50 is greater than 30 µM.

On to `CCCCC/C=C\C/C=C\CCCCCCCC(=O)N(C)CCc1c[nH]c2ccc(OC)cc12` [WO2023019367, Compound I-21], for which the EC50 is greater than 30 µM.

For `CCCCC/C=C\C/C=C\CCCCCCCC(=O)N1CCCC1Cc1c[nH]c2ccccc12` (centres undefined) [WO2023019367, Compound I-46], the EC50 was greater than 30 µM.

As for `CCCCC/C=C\C/C=C\CCCCCCCC(=O)N1CCCC1Cc1c[nH]c2ccc(OC)cc12` (centres undefined) [WO2023019367, Compound I-55], the EC50 was greater than 30 µM.

Turning to `CCCCC/C=C\C/C=C\CCCCCCCC(=O)N1CCC(c2c[nH]c3ccc(OC)cc23)C1` (centres undefined) [WO2023019367, Compound I-81], the EC50 is greater than 30 µM.

Turning to `CCCCC/C=C\C/C=C\CCCCCCCC(=O)N1CCC(c2c[nH]c3ccccc23)C1` (centres undefined) [WO2023019367, Compound I-84], the EC50 is greater than 30 µM.

As for `CCCCC/C=C\C/C=C\CCCCCCCC(=O)N1CCC(c2c[nH]c3ccccc23)CC1` [WO2023019367, Compound I-87], the EC50 was greater than 30 µM.

Consider `CCCCC/C=C\C/C=C\CCCCCCCC(=O)N1CCC(c2c[nH]c3ccc(OC)cc23)CC1` [WO2023019367, Compound I-88], for which the EC50 is greater than 30 µM.
